Results: patent US20260335345A1, “COMPOSITION FOR IMPROVING NICOTINAMIDE MONONUCLEOTIDE PRODUCTION” (MEIJI HOLDINGS CO., LTD., priority 2022, published 2026)

How the values were obtained:
[1] = test system: inflammatory bowel disease; conditions: in vivo; cited from earlier work
[2] = test system: aged mice; conditions: cited from earlier work
[3] = NMN administration; cited from earlier work
[4] = test system: aged mice; conditions: cited from earlier work; remark: listed apart in the source
[5] = test system: mice with type II diabetes; conditions: type II diabetes induced by a high-fat diet; cited from earlier work
[6] = test system: human feces #1 to #3 (human fecal-derived gut microbiota); assay: NMN production by human fecal cultures in GAM evaluation medium with 0.5% carbohydrate (Test Example 2); format: cell-based; conditions: 37 °C, anaerobic, 12 hours; for NMN Concentration (Avg Value): GAM medium, average of human feces #1 to #3, only substance of its classification; for NMN concentration in culture (FIG. 2), in words: average of human feces #1 to #3
Description: 1 mg of human feces (#1 to 3) collected from different individuals was added to 1 mL of GAM medium supplemented with glucose SO that the final concentration was 0.5%, and cultured at 37 °C in an anaerobic glove box for 12 hours, and then the NMN concentration in the culture solution was measured. As the GAM medium, GAM semi-fluid medium for saccharolysis (manufactured by Nissui Pharmaceutical Co., Ltd.) was dissolved in water to a predetermined concentration, filtered through a 0.8 μm filter, and autoclaved at 115 °C for 15 minutes. The NMN concentration was measured by the following method. That is, first, the supernatant obtained by centrifuging the culture solution was filtered through a 0.22 μm filter, and then the filtrate was mixed with methanol (final concentration: 80 v/v %) and allowed to stand on ice for 30 minutes. Next, the supernatant obtained by centrifuging this was dried using a centrifugal evaporator. Next, the obtained dried product was dissolved in an ammonium acetate solution and subjected to a liquid chromatograph mass spectrometer (LC-MS/MS) for analysis under the following conditions to measure the NMN concentration. (LC-MS/MS analysis conditions)
First, each evaluation medium was prepared by adding any one of the carbohydrates shown in Table 1 below to the GAM medium (without glucose added) so that the final concentration was 0.5%. As a comparative example, an evaluation medium to which distilled water (DW) was added instead of carbohydrate was also prepared. Next, 1 mg of the same human feces #1 to #3 as in Test Example 1 was added to 1 mL of the evaluation medium, and cultured at 37 °C in an anaerobic glove box for 12 hours. After culturing, the NMN concentration in the culture solution was measured by liquid chromatograph mass spectrometer (LC-MS/MS) by the method described in Test Example 1.

[7] = cited from earlier work
[8] = test system: human gut microbiota in human flora mice; assay: NMN concentration in feces of human flora mice given kestose (Test Example 4); format: in vivo; conditions: 5% kestose aqueous solution ad libitum
Description: 1 mg of human feces (#1 to 3) collected from different individuals was added to 1 mL of GAM medium supplemented with glucose SO that the final concentration was 0.5%, and cultured at 37 °C in an anaerobic glove box for 12 hours, and then the NMN concentration in the culture solution was measured. As the GAM medium, GAM semi-fluid medium for saccharolysis (manufactured by Nissui Pharmaceutical Co., Ltd.) was dissolved in water to a predetermined concentration, filtered through a 0.8 μm filter, and autoclaved at 115 °C for 15 minutes. The NMN concentration was measured by the following method. […]
Using kestose (manufactured by Meiji Food Materia Co., Ltd.), the effect of improving NMN production in the intestine (large intestine) of human flora mice, which were germ-free mice transplanted with human gut microbiota, was evaluated. […] Next, the mixed supernatant was dried using a centrifugal evaporator, the obtained dried product was dissolved in an ammonium acetate solution, filtered through a 0.22 μm filter, and then the NMN concentration in the filtrate was measured by liquid chromatograph mass spectrometer (LC-MS/MS) by the method described in Test Example 1 to calculate the NMN concentration (ng/mL) in the feces.

In the case of `NC(=O)c1ccc[n+]([C@@H]2O[C@H](COP(=O)([O-])OP(=O)(O)OC[C@H]3O[C@@H](n4cnc5c(N)ncnc54)[C@H](O)[C@@H]3O)[C@@H](O)[C@H]2O)c1` [NAD, nicotinamide adenine dinucleotide], the “effect in improving inflammatory bowel disease” value [1] is given as “effective in improving inflammatory bowel disease”.
For `NC(=O)c1ccc[n+]([C@@H]2O[C@H](COP(=O)([O-])O)[C@@H](O)[C@H]2O)c1` [NMN, β-nicotinamide mononucleotide], the “effects of NMN administration in aged mice” value [2] is given as “suppressed age-related obesity, improved energy metabolism, and improved insulin resistance, lipid metabolism, eye function, bone density, and immune function”, the “age-related changes in gene expression” value ([2]; skeletal muscle, fat, and liver) is given as “suppression of age-related changes in gene expression in skeletal muscle, fat, and liver” and the “age-related declines in organ function and dementia of the Alzheimer type” value [3] is given as “improved age-related declines in liver function, renal function, skeletal muscle function, and cardiac function, as well as dementia of the Alzheimer type”. For the same compound, the constipation [4] was “improved constipation”, the “gene expression related to oxidative stress, inflammatory response, and circadian rhythm” value [5] was “restored gene expression related to oxidative stress, inflammatory response, and circadian rhythm” and the “glucose tolerance, hepatic insulin sensitivity” value [5] was “improved glucose tolerance disorder and hepatic insulin sensitivity”.
In the case of `O=C(CO)[C@@H](O)[C@@H](O)[C@H](O)CO` [Tagatose, D-Tagatose], the “NMN Concentration (Avg Value)” value [6] is reported as 100 ng/mL.
For `OC[C@H]1O[C@@H](O[C@H]2[C@H](O)[C@@H](O)C(O)O[C@@H]2CO)[C@H](O)[C@@H](O)[C@@H]1O` (stereo partly drawn) [cellobiose, D-Cellobiose], the “NMN concentration in culture (FIG. 2), in words” value (from here on “NMN concentration in culture”) [6] was “higher NMN concentrations than glucose and sucrose”.
In the case of `O=C[C@H](O)[C@@H](O)[C@H](O)[C@H](O)CO` [glucose, D-Glucose], the “absorption in the small intestine” value [7] is given as “completely absorbed into the body in the small intestine” and the “decomposition and absorption in the upper digestive tract in vivo” value [7] is given as “decomposed and absorbed in the upper digestive tract in vivo”.
For `OC[C@H]1O[C@@](CO)(OC[C@@]2(O[C@H]3O[C@H](CO)[C@@H](O)[C@H](O)[C@H]3O)O[C@H](CO)[C@@H](O)[C@@H]2O)[C@@H](O)[C@@H]1O` [kestose, 1-Kestose], the “NMN concentration in culture” value [6] was “higher NMN concentrations than glucose and sucrose”, the “amount of NMN produced by human gut microbiota in vivo” value [8] was “increases the amount of NMN produced by human gut microbiota in vivo” and the “NMN concentration in feces vs Day 0” value ([8]; Day 1, 3, and 9 (FIG. 4)) was “higher on Day 1, 3, and 9”.
With `OC[C@H]1O[C@@H](O[C@H]2[C@H](O)[C@@H](O)[C@@H](O[C@]3(CO)O[C@H](CO)[C@@H](O)[C@@H]3O)O[C@@H]2CO)[C@H](O)[C@@H](O)[C@H]1O` [lactosucrose, Lactosucrose] the “NMN concentration in culture” value [6] was “higher NMN concentrations than glucose and sucrose”.
With `OC[C@H]1O[C@H](OC[C@H]2O[C@H](O[C@]3(CO)O[C@H](CO)[C@@H](O)[C@@H]3O)[C@H](O)[C@@H](O)[C@@H]2O)[C@H](O)[C@@H](O)[C@H]1O` [raffinose, Raffinose] the “NMN concentration in culture” value [6] was “higher NMN concentrations than glucose and sucrose”.
For `CC(=O)N[C@H]1[C@H]([C@H](O)[C@H](O)CO)O[C@@](O[C@H]2[C@@H](O)[C@@H](CO)O[C@@H](O[C@H]3[C@H](O)[C@@H](O)C(O)O[C@@H]3CO)[C@@H]2O)(C(=O)O)C[C@@H]1O` (some centres unmarked) [sialyllactose, 3′-Sialyllactose], the “NMN concentration in culture” value [6] was “relatively low NMN concentration”.
For `OC[C@H]1O[C@@](CO)(O[C@H]2O[C@H](CO)[C@@H](O)[C@H](O)[C@H]2O)[C@@H](O)[C@@H]1O` [sucrose, D-Sucrose], the “decomposition and absorption in the upper digestive tract in vivo” value [7] is listed as “decomposed and absorbed in the upper digestive tract in vivo”.
In the case of `O=C[C@H](O)[C@@H](O)[C@H](O)CO` [xylose], the “absorption in the small intestine” value [7] is listed as “completely absorbed into the body in the small intestine”.
For inulin, the “NMN Concentration (Avg Value)” value [6] was 70 ng/mL.
